Measurements as given in paper PMC7155171, “Probing the Open Global Health Chemical Diversity Library for Multistage-Active Starting Points for Next-Generation Antimalarials” (ACS Infectious Diseases, 2020).

Tests used:
[1] = HepG2 cytotoxicity screening (CellTiter-Glo); conditions: human, uninfected HepG2-A16-CD81 (EGFP) hepatocytes
[2] = test system: HepG2-A16-CD81 hepatocytes; experiment: HepG2 cytotoxicity screening (CellTiter-Glo); conditions: for HepG2 cytotoxicity 12pt dose response: Maximum inhibition (%): 12pt dose response
[3] = target: recombinant firefly luciferase (Photinus pyralis, UniProt P08659); experiment: biochemical; conditions: dose response; for Emax: maximum inhibition, read-out: rLuc inhibition dose response: Maximum inhibition (%); for IC50: read-out: rLuc inhibition dose response: IC50
[4] = test system: P. berghei liver stage (PbLuc); experiment: P. berghei luciferase liver stage (PbLuc) assay in HepG2-A16-CD81 hepatocytes; type: cell-based, Plasmodium berghei; conditions: Plasmodium berghei; for IC50: HepG2-A16-CD81, 12pt dose response, read-out: PbLuc 12pt dose response: IC50; for Emax: HepG2-A16-CD81, 48 h, 12pt dose response, maximum inhibition

Chain of recombinant firefly luciferase (P08659 whole entry): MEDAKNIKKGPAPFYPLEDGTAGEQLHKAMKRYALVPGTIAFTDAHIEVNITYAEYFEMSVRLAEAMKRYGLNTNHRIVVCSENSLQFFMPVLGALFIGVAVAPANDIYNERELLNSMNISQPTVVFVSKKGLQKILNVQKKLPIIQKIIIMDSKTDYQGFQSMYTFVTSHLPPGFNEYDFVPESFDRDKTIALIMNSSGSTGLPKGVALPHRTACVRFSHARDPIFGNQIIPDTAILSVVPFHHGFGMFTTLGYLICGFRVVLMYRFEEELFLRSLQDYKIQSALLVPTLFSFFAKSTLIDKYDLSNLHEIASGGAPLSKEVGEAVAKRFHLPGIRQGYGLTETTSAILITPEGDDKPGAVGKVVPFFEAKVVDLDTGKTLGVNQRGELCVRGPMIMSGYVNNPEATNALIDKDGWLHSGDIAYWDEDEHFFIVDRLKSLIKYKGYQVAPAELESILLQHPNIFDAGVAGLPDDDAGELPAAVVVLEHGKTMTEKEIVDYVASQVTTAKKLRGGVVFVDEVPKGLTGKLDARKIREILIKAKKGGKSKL

Structure (SMILES): O=C(NC1CCCC1)O[C@H]1COCCN(c2nc3ccccc3s2)C1 [UCSD-0785020]
- IC50 [1]: > 25 µM
- inhibition at 2 µM [1]: 0.48%
- HepG2 cytotoxicity 12pt dose response: Maximum inhibition (%) [2]: -1.51%
- Emax [3]: 16.5%
- IC50 [3]: > 25 µM
- IC50 [4]: 6.66 µM
- Emax [4]: 88.1%

Structure (SMILES): Fc1ccc(CN2CCCC(c3cc4ncccc4[nH]3)C2)cc1 (stereo not drawn) [UCSD-0798856]
- IC50 [1]: > 25 µM
- inhibition at 2 µM [1]: 12%
- HepG2 cytotoxicity 12pt dose response: Maximum inhibition (%) [2]: -0.046%
- Emax [3]: 23.6%
- IC50 [3]: > 25 µM
- IC50 [4]: 8.45 µM
- Emax [4]: 78.4%

Structure (SMILES): NC(=O)c1ccc(N2CCCCC2)c(NC(=O)c2ccc(F)cc2F)c1 [UCSD-0811362]
- IC50 [1]: > 25 µM
- inhibition at 2 µM [1]: 2.8%
- HepG2 cytotoxicity 12pt dose response: Maximum inhibition (%) [2]: 5.59%
- Emax [3]: 19.1%
- IC50 [3]: > 25 µM
- IC50 [4]: 8.87 µM
- Emax [4]: 81%

Structure (SMILES): c1ccc(OCCNc2ncnc3sc4c(c23)CCNC4)cc1 [UCSD-0829760]
- IC50 [1]: > 25 µM
- inhibition at 2 µM [1]: -2.42%
- HepG2 cytotoxicity 12pt dose response: Maximum inhibition (%) [2]: 42.9%
- Emax [3]: 7.54%
- IC50 [3]: > 25 µM
- IC50 [4]: 9.15 µM
- Emax [4]: 73%

Structure (SMILES): CCOc1ccc(CN2CCCC(c3cc4ncccc4[nH]3)C2)cc1 (stereo not drawn) [UCSD-0798855]
- IC50 [1]: > 25 µM
- inhibition at 2 µM [1]: 9.74%
- HepG2 cytotoxicity 12pt dose response: Maximum inhibition (%) [2]: 11.6%
- Emax [3]: 20.7%
- IC50 [3]: > 25 µM
- IC50 [4]: 5.76 µM
- Emax [4]: 90.3%

Structure (SMILES): COc1ccc(-c2nc(CN3CC(n4cc(C)cn4)C3)no2)cc1 [UCSD-0819446]
- IC50 [1]: > 25 µM
- HepG2 Cytotoxicity primary screen (2uM): % Inhibition [2]: -12.79%
- HepG2 cytotoxicity 12pt dose response: Maximum inhibition (%) [2]: 1.19%
- Emax [3]: 6.87%
- IC50 [3]: > 25 µM
- IC50 [4]: 11.2 µM
- Emax [4]: 82.5%

Structure (SMILES): O=C(CN1CCCC(c2ccn[nH]2)C1)Nc1nc2c(s1)CCCC2 (stereo not drawn) [UCSD-0818422]
- IC50 [1]: > 25 µM
- HepG2 Cytotoxicity primary screen (2uM): % Inhibition [2]: 7.13%
- HepG2 cytotoxicity 12pt dose response: Maximum inhibition (%) [2]: 8.88%
- Emax [3]: 6.65%
- IC50 [3]: > 25 µM
- IC50 [4]: 4.53 µM
- Emax [4]: 95.9%

Structure (SMILES): COc1cc(CN(C)C(=O)Cc2c(C)nn(C)c2C)ccc1OC(F)F [UCSD-0819780]
- IC50 [1]: > 25 µM
- inhibition at 2 µM [1]: 7.57%
- HepG2 cytotoxicity 12pt dose response: Maximum inhibition (%) [2]: 55.1%
- Emax [3]: 6.77%
- IC50 [3]: > 25 µM
- IC50 [4]: 2.11 µM
- Emax [4]: 80.1%

Structure (SMILES): CC(C)(CO)Nc1ccc(-c2nc(-c3ccccc3F)no2)cn1 [UCSD-0833103]
- IC50 [1]: > 25 µM
- inhibition at 2 µM [1]: 2.86%
- HepG2 cytotoxicity 12pt dose response: Maximum inhibition (%) [2]: 34.7%
- Emax [3]: 93.7%
- IC50 [3]: 0.045 µM
- IC50 [4]: < 0.000141 µM
- Emax [4]: 98.5%

Structure (SMILES): CSc1ccc(CN2C[C@@H]3CC[C@@](O)(c4ccc(C)cn4)[C@@H]3C2)cc1 [UCSD-0801744]
- IC50 [1]: > 25 µM
- inhibition at 2 µM [1]: 2.45%
- HepG2 cytotoxicity 12pt dose response: Maximum inhibition (%) [2]: 9.86%
- Emax [3]: 38.3%
- IC50 [3]: > 25 µM
- IC50 [4]: 23 µM
- Emax [4]: 66.8%

Structure (SMILES): CC(=O)Nc1ncc(S(=O)(=O)Nc2ccc3c(c2)OCCO3)s1 [UCSD-0796805]
- IC50 [1]: > 25 µM
- HepG2 Cytotoxicity primary screen (2uM): % Inhibition [2]: -2.36%
- HepG2 cytotoxicity 12pt dose response: Maximum inhibition (%) [2]: 4.04%
- Emax [3]: 52.2%
- IC50 [3]: > 25 µM
- IC50 [4]: 9.83 µM
- Emax [4]: 92%

Structure (SMILES): CCc1ccc(-c2ncc3c(n2)N(C)CCN(CCN(C)C)C3=O)cc1 [UCSD-0824219]
- IC50 [1]: > 25 µM
- HepG2 Cytotoxicity primary screen (2uM): % Inhibition [2]: 4.38%
- HepG2 cytotoxicity 12pt dose response: Maximum inhibition (%) [2]: 6.88%
- Emax [3]: 7.09%
- IC50 [3]: > 25 µM
- IC50 [4]: 12.1 µM
- Emax [4]: 81.1%

Structure (SMILES): CCOc1ccc(S(=O)(=O)Nc2cnc(OC)nc2OC)cc1 [UCSD-0788088]
- IC50 [1]: > 25 µM
- inhibition at 2 µM [1]: 4.64%
- HepG2 cytotoxicity 12pt dose response: Maximum inhibition (%) [2]: 61%
- Emax [3]: -1.04%
- IC50 [3]: > 25 µM
- IC50 [4]: 5.14 µM
- Emax [4]: 71.2%

Structure (SMILES): CN1CCOC(C(=O)Nc2ccc3c(c2)nc(C(C)(C)C)n3C)C1 (stereo not drawn) [UCSD-0818200]
- IC50 [1]: > 25 µM
- HepG2 cytotoxicity 12pt dose response: Maximum inhibition (%) [2]: 0.658%
- Emax [3]: 88.4%
- IC50 [3]: 13.4 µM
- IC50 [4]: 0.00222 µM
